In the supplement of paper PMC10883282:
± gives the standard deviation of the averaged measurements.

Key:
Experiment in all cases: relative viability vs DMSO control (72 h) (fraction); higher = more viable cells
[1] = test system: SK-LMS-1
Procedure, shortened: (§1)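 Sarcoma cell lines were plated in 384 wells to reach 80–90% confluence, treated after 24 h with 2.5 µl of serially diluted compound and held 72 h at 37 °C, 5% CO2. Relative viability was taken as percent growth from ATPLite readings, averaged over up to triplicate wells. The values were rescaled so that 1 marks full and 0 marks none.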

[2] = test system: VA-ES-BJ
Procedure, shortened: as §1

[3] = test system: KHOS-240S
Procedure, shortened: as §1

[4] = test system: A204
Procedure, shortened: as §1

[5] = test system: MES-SA
Procedure, shortened: as §1

[6] = test system: SW1353
Procedure, shortened: as §1

[7] = test system: SK-ES-1
Procedure, shortened: as §1

[8] = test system: RD
Procedure, shortened: as §1

[9] = test system: SW872
Procedure, shortened: as §1

[10] = test system: G401
Procedure, shortened: as §1

[11] = test system: HS729
Procedure, shortened: as §1

[12] = test system: SW982
Procedure, shortened: as §1

Work on O=C(Nc1ccc(OC(F)(F)Cl)cc1)c1cnc(N2CC[C@@H](O)C2)c(-c2cc[nH]n2)c1 [Asciminib] yielded a relative viability ([1]; 0.00017 µM) of 0.928 ± 0.004, a relative viability ([1]; 0.00051 µM) of 0.955 ± 0.059 and a relative viability ([1]; 0.00152 µM) of 0.972 ± 0.052. The relative viability ([1]; 0.00457 µM) was 0.97 ± 0.025, the relative viability ([1]; 0.01372 µM) was 1.06 ± 0.028 and the relative viability ([1]; 0.04115 µM) was 1.02 ± 0.021. The relative viability ([1]; 0.1235 µM) was 1 ± 0.066, the relative viability ([1]; 0.3704 µM) was 1.05 ± 0.046 and the relative viability ([1]; 1.111 µM) was 1.04 ± 0.08. It also gave a relative viability ([1]; 3.333 µM) of 0.773 ± 0.018, a relative viability ([1]; 10 µM) of 0.565 ± 0.019 and a relative viability ([2]; 0.00017 µM) of 0.998 ± 0.047. For the same compound, the relative viability ([2]; 0.00051 µM) was 0.982 ± 0.05, the relative viability ([2]; 0.00152 µM) was 0.995 ± 0.042 and the relative viability ([2]; 0.00457 µM) was 0.99 ± 0.064. It also gave a relative viability ([2]; 0.01372 µM) of 0.999 ± 0.041, a relative viability ([2]; 0.04115 µM) of 1.02 ± 0.03 and a relative viability ([2]; 0.1235 µM) of 1.02 ± 0.035. The relative viability ([2]; 0.3704 µM) was 1.03 ± 0.025, the relative viability ([2]; 1.111 µM) was 1.02 ± 0.049 and the relative viability ([2]; 3.333 µM) was 0.9997 ± 0.0059. It also gave a relative viability ([2]; 10 µM) of 0.9486 ± 0.0022, a relative viability ([3]; 0.00017 µM) of 1.04 ± 0.021 and a relative viability ([3]; 0.00051 µM) of 1.01 ± 0.013. The relative viability ([3]; 0.00152 µM) was 1.02 ± 0.026, the relative viability ([3]; 0.00457 µM) was 1.02 ± 0.02 and the relative viability ([3]; 0.01372 µM) was 1.03 ± 0.033. The relative viability ([3]; 0.04115 µM) was 1.009 ± 0.0052, the relative viability ([3]; 0.1235 µM) was 0.9965 ± 0.0068 and the relative viability ([3]; 0.3704 µM) was 1.04 ± 0.0074. For the same compound, the relative viability ([3]; 1.111 µM) was 1.03 ± 0.042, the relative viability ([3]; 3.333 µM) was 0.977 ± 0.037 and the relative viability ([3]; 10 µM) was 0.632 ± 0.052. It also gave a relative viability ([4]; 0.00017 µM) of 1.02 ± 0.028, a relative viability ([4]; 0.00051 µM) of 1.04 ± 0.043 and a relative viability ([4]; 0.00152 µM) of 1.05 ± 0.03. For the same compound, the relative viability ([4]; 0.00457 µM) was 1.04 ± 0.039, the relative viability ([4]; 0.01372 µM) was 1.04 ± 0.02 and the relative viability ([4]; 0.04115 µM) was 1.05 ± 0.02. For the same compound, the relative viability ([4]; 0.1235 µM) was 1.06 ± 0.043, the relative viability ([4]; 0.3704 µM) was 1.06 ± 0.041 and the relative viability ([4]; 1.111 µM) was 1.04 ± 0.035. The relative viability ([4]; 3.333 µM) was 0.799 ± 0.071, the relative viability ([4]; 10 µM) was 0.449 ± 0.055 and the relative viability ([5]; 0.00017 µM) was 0.88 ± 0.045. The relative viability ([5]; 0.00051 µM) was 0.902 ± 0.0096, the relative viability ([5]; 0.00152 µM) was 0.864 ± 0.039 and the relative viability ([5]; 0.00457 µM) was 0.898 ± 0.039. For the same compound, the relative viability ([5]; 0.01372 µM) was 0.9132 ± 0.0061, the relative viability ([5]; 0.04115 µM) was 0.9229 ± 0.0089 and the relative viability ([5]; 0.1235 µM) was 0.914 ± 0.056. For the same compound, the relative viability ([5]; 0.3704 µM) was 0.951 ± 0.004, the relative viability ([5]; 1.111 µM) was 0.908 ± 0.019 and the relative viability ([5]; 3.333 µM) was 0.829 ± 0.031. For the same compound, the relative viability ([5]; 10 µM) was 0.577 ± 0.021, the relative viability ([6]; 0.00017 µM) was 0.946 ± 0.021 and the relative viability ([6]; 0.00051 µM) was 0.958 ± 0.011. For the same compound, the relative viability ([6]; 0.00152 µM) was 0.936 ± 0.047, the relative viability ([6]; 0.00457 µM) was 0.9604 ± 0.008 and the relative viability ([6]; 0.01372 µM) was 1.04 ± 0.042. For the same compound, the relative viability ([6]; 0.04115 µM) was 1.1 ± 0.028, the relative viability ([6]; 0.1235 µM) was 1.1 ± 0.051 and the relative viability ([6]; 0.3704 µM) was 1.14 ± 0.015. For the same compound, the relative viability ([6]; 1.111 µM) was 1.11 ± 0.031, the relative viability ([6]; 3.333 µM) was 1.06 ± 0.027 and the relative viability ([6]; 10 µM) was 0.953 ± 0.036. The relative viability ([7]; 0.00017 µM) was 0.975 ± 0.034, the relative viability ([7]; 0.00051 µM) was 0.999 ± 0.022 and the relative viability ([7]; 0.00152 µM) was 1 ± 0.077. For the same compound, the relative viability ([7]; 0.00457 µM) was 1 ± 0.023, the relative viability ([7]; 0.01372 µM) was 0.992 ± 0.051 and the relative viability ([7]; 0.04115 µM) was 1.01 ± 0.033. The relative viability ([7]; 0.1235 µM) was 1.01 ± 0.014, the relative viability ([7]; 0.3704 µM) was 1.02 ± 0.055 and the relative viability ([7]; 1.111 µM) was 0.995 ± 0.065. The relative viability ([7]; 3.333 µM) was 0.906 ± 0.037, the relative viability ([7]; 10 µM) was 0.814 ± 0.036 and the relative viability ([8]; 0.00017 µM) was 1.05 ± 0.026. For the same compound, the relative viability ([8]; 0.00051 µM) was 1.049 ± 0.01, the relative viability ([8]; 0.00152 µM) was 1.067 ± 0.0057 and the relative viability ([8]; 0.00457 µM) was 1.08 ± 0.029. It also gave a relative viability ([8]; 0.01372 µM) of 1.05 ± 0.028, a relative viability ([8]; 0.04115 µM) of 1.092 ± 0.01 and a relative viability ([8]; 0.1235 µM) of 1.088 ± 0.0041. For the same compound, the relative viability ([8]; 0.3704 µM) was 1.11 ± 0.022, the relative viability ([8]; 1.111 µM) was 1.04 ± 0.02 and the relative viability ([8]; 3.333 µM) was 1.07 ± 0.04. It also gave a relative viability ([8]; 10 µM) of 0.984 ± 0.049, a relative viability ([9]; 0.00017 µM) of 0.966 ± 0.039 and a relative viability ([9]; 0.00051 µM) of 0.94 ± 0.023. It also gave a relative viability ([9]; 0.00152 µM) of 0.939 ± 0.028, a relative viability ([9]; 0.00457 µM) of 0.938 ± 0.025 and a relative viability ([9]; 0.01372 µM) of 0.937 ± 0.023. It also gave a relative viability ([9]; 0.04115 µM) of 0.978 ± 0.029, a relative viability ([9]; 0.1235 µM) of 0.9486 ± 0.0027 and a relative viability ([9]; 0.3704 µM) of 1.01 ± 0.034. For the same compound, the relative viability ([9]; 1.111 µM) was 0.991 ± 0.025, the relative viability ([9]; 3.333 µM) was 0.974 ± 0.022 and the relative viability ([9]; 10 µM) was 0.93 ± 0.013. For the same compound, the relative viability ([10]; 0.00017 µM) was 0.949 ± 0.014, the relative viability ([10]; 0.00051 µM) was 0.921 ± 0.019 and the relative viability ([10]; 0.00152 µM) was 0.928 ± 0.05. It also gave a relative viability ([10]; 0.00457 µM) of 0.967 ± 0.054, a relative viability ([10]; 0.01372 µM) of 0.961 ± 0.048 and a relative viability ([10]; 0.04115 µM) of 0.981 ± 0.063. The relative viability ([10]; 0.1235 µM) was 0.981 ± 0.072, the relative viability ([10]; 0.3704 µM) was 0.99 ± 0.056 and the relative viability ([10]; 1.111 µM) was 0.9822 ± 0.0088. For the same compound, the relative viability ([10]; 3.333 µM) was 0.909 ± 0.036, the relative viability ([10]; 10 µM) was 0.831 ± 0.047 and the relative viability ([11]; 0.00017 µM) was 0.939 ± 0.045. The relative viability ([11]; 0.00051 µM) was 0.932 ± 0.018, the relative viability ([11]; 0.00152 µM) was 0.93 ± 0.021 and the relative viability ([11]; 0.00457 µM) was 0.915 ± 0.029. The relative viability ([11]; 0.01372 µM) was 0.916 ± 0.021, the relative viability ([11]; 0.04115 µM) was 0.893 ± 0.018 and the relative viability ([11]; 0.1235 µM) was 0.928 ± 0.02. The relative viability ([11]; 0.3704 µM) was 0.901 ± 0.036, the relative viability ([11]; 1.111 µM) was 0.903 ± 0.06 and the relative viability ([11]; 3.333 µM) was 0.954 ± 0.049. It also gave a relative viability ([11]; 10 µM) of 0.829 ± 0.044, a relative viability ([12]; 0.00017 µM) of 0.974 ± 0.046 and a relative viability ([12]; 0.00051 µM) of 0.978 ± 0.068. The relative viability ([12]; 0.00152 µM) was 1 ± 0.025, the relative viability ([12]; 0.00457 µM) was 0.975 ± 0.074 and the relative viability ([12]; 0.01372 µM) was 1.01 ± 0.033. For the same compound, the relative viability ([12]; 0.04115 µM) was 1.01 ± 0.035, the relative viability ([12]; 0.1235 µM) was 1.01 ± 0.052 and the relative viability ([12]; 0.3704 µM) was 1.04 ± 0.05. For the same compound, the relative viability ([12]; 1.111 µM) was 1.05 ± 0.036, the relative viability ([12]; 3.333 µM) was 1.01 ± 0.081 and the relative viability ([12]; 10 µM) was 0.858 ± 0.011.
